The values below come from ChEMBL document CHEMBL1671687, “Enhancement of biofilm formation by subinhibitory concentrations of macrolides in icaADBC-positive and -negative clinical isolates of Staphylococcus epidermidis” (2010).

Values after ≈ are worked out from the molar mass of the structure shown.

Holding throughout (format): functional
Experiment [1] concerns Staphylococcus epidermidis. Kind of experiment: Enhancement of biofilm formation Staphylococcus epidermidis SW099 at subinhibitory concentration by microtiter plate assay. Set-up: scale not given: the % may be the effect or the level left.
The subject of experiment [2] is Staphylococcus epidermidis. Kind of experiment: Enhancement of biofilm formation Staphylococcus epidermidis SW070 at subinhibitory concentration by microtiter plate assay. Also noted: scale not given: the % may be the effect or the level left.
The subject of experiment [3] is Staphylococcus epidermidis. Description: Antimicrobial activity against Staphylococcus epidermidis SW027 expressing icaA gene assessed as enhancement of biofilm formation at subinhibitory concentration by microtiter plate assay. Also noted: scale not given: the % may be the effect or the level left.
Experiment [4] has as its system Staphylococcus epidermidis. Kind of experiment: Enhancement of biofilm formation Staphylococcus epidermidis SW104 expressing icaA gene at subinhibitory concentration by microtiter plate assay. Also noted: scale not given: the % may be the effect or the level left.
For experiment [5], the system named is Staphylococcus epidermidis. Description: Enhancement of biofilm formation Staphylococcus epidermidis SW036 at subinhibitory concentration by microtiter plate assay. Set-up: scale not given: the % may be the effect or the level left.
The subject of experiment [6] is Staphylococcus epidermidis. Kind of experiment: Enhancement of biofilm formation Staphylococcus epidermidis SW045 expressing icaA gene at subinhibitory concentration by microtiter plate assay. Set-up: scale not given: the % may be the effect or the level left.
Experiment [7] deals with Staphylococcus epidermidis. Kind of experiment: Enhancement of biofilm formation Staphylococcus epidermidis SW082 at subinhibitory concentration by microtiter plate assay. Also noted: scale not given: the % may be the effect or the level left.
Experiment [8] relates to Staphylococcus epidermidis. Description: Enhancement of biofilm formation Staphylococcus epidermidis ATCC 35984 expressing icaA gene at subinhibitory concentration by microtiter plate assay. Set-up: scale not given: the % may be the effect or the level left.
Experiment [9] deals with Staphylococcus epidermidis. Description: Enhancement of biofilm formation Staphylococcus epidermidis SW029 expressing icaA gene at subinhibitory concentration by microtiter plate assay. Also noted: scale not given: the % may be the effect or the level left.
Experiment [10] has as its system Staphylococcus epidermidis. Kind of experiment: Enhancement of biofilm formation Staphylococcus epidermidis SW061 expressing icaA gene at subinhibitory concentration by microtiter plate assay. Set-up: scale not given: the % may be the effect or the level left.
Experiment [11] has as its system Staphylococcus epidermidis. Kind of experiment: Enhancement of biofilm formation Staphylococcus epidermidis SW126 expressing icaA gene at subinhibitory concentration by microtiter plate assay. Also noted: scale not given: the % may be the effect or the level left.
For experiment [12], the system named is Staphylococcus epidermidis. Kind of experiment: Enhancement of biofilm formation Staphylococcus epidermidis SW120 at subinhibitory concentration by microtiter plate assay. Also noted: scale not given: the % may be the effect or the level left.
Experiment [13] deals with Staphylococcus epidermidis. Kind of experiment: Enhancement of biofilm formation Staphylococcus epidermidis SW085 expressing icaA gene at subinhibitory concentration by microtiter plate assay. Also noted: scale not given: the % may be the effect or the level left.
Experiment [14] concerns Staphylococcus epidermidis. Kind of experiment: Enhancement of biofilm formation Staphylococcus epidermidis SW032 expressing icaA gene at subinhibitory concentration by microtiter plate assay. Also noted: scale not given: the % may be the effect or the level left.
The subject of experiment [15] is Staphylococcus epidermidis. Kind of experiment: Enhancement of biofilm formation Staphylococcus epidermidis SW088 at subinhibitory concentration by microtiter plate assay. Also noted: scale not given: the % may be the effect or the level left.
Experiment [16] relates to Staphylococcus epidermidis. Kind of experiment: Enhancement of biofilm formation Staphylococcus epidermidis SW067 expressing icaA gene at subinhibitory concentration by microtiter plate assay. Also noted: scale not given: the % may be the effect or the level left.
Experiment [17] has as its system Staphylococcus epidermidis. Kind of experiment: Antimicrobial activity against Staphylococcus epidermidis SW029 expressing icaA gene.
For experiment [18], the system named is Staphylococcus epidermidis. Description: Enhancement of biofilm formation Staphylococcus epidermidis SW071 at subinhibitory concentration by microtiter plate assay. Set-up: scale not given: the % may be the effect or the level left.
In experiment [19] the test system is Staphylococcus epidermidis. Kind of experiment: Enhancement of biofilm formation Staphylococcus epidermidis SW058 expressing icaA gene at subinhibitory concentration by microtiter plate assay. Set-up: scale not given: the % may be the effect or the level left.
In experiment [20] the test system is Staphylococcus epidermidis. Description: Enhancement of biofilm formation Staphylococcus epidermidis SW015 at subinhibitory concentration by microtiter plate assay. Also noted: scale not given: the % may be the effect or the level left.
The subject of experiment [21] is Staphylococcus epidermidis. Description: Enhancement of biofilm formation Staphylococcus epidermidis SW021 at subinhibitory concentration by microtiter plate assay. Also noted: scale not given: the % may be the effect or the level left.
Experiment [22] relates to Staphylococcus epidermidis. Description: Enhancement of biofilm formation Staphylococcus epidermidis SW098 expressing icaA gene at subinhibitory concentration by microtiter plate assay. Also noted: scale not given: the % may be the effect or the level left.
Experiment [23] has as its system Staphylococcus epidermidis. Kind of experiment: Enhancement of biofilm formation Staphylococcus epidermidis SW115 at subinhibitory concentration by microtiter plate assay. Also noted: scale not given: the % may be the effect or the level left.
For experiment [24], the system named is Staphylococcus epidermidis. Kind of experiment: Antimicrobial activity against Staphylococcus epidermidis SW036.

Regarding `CC[C@H]1OC(=O)[C@H](C)[C@@H](O[C@H]2C[C@@](C)(OC)[C@@H](O)[C@H](C)O2)[C@H](C)[C@@H](O[C@@H]2O[C@H](C)C[C@H](N(C)C)[C@H]2O)[C@](C)(O)C[C@@H](C)CN(C)[C@H](C)[C@@H](O)[C@]1(C)O` [AZITHROMYCIN], the Activity in experiment [1] is reported as 47%; in [2], 92.3%; in experiment [3], 49.1%; in experiment [4] it was 48.1%; in [5] it was 289.2%; in experiment [6], 33.4%. The Activity is on record as 59.8% in experiment [7]; 2.5% in [8]; 157.9% in experiment [9]; 58.4% in [10]; 56.4% in [11]; 75.8% in [12]. Besides, the Activity worked out at 298.3% in experiment [13]; 71.8% in [14]; 117.2% in experiment [15]; 128.8% in experiment [16]; 277.8% in experiment [18]; 37.6% in [19]. In addition, the Activity in [20] is 57.3%; in experiment [21], 39.8%; in experiment [22], 104%; in [23] it was 184.3%. Further, the MIC in experiment [17] and in [24] was above 128 µg/mL each time.
As for `CC[C@H]1OC(=O)[C@H](C)[C@@H](O[C@H]2C[C@@](C)(OC)[C@@H](O)[C@H](C)O2)[C@H](C)[C@@H](O[C@@H]2O[C@H](C)C[C@H](N(C)C)[C@H]2O)[C@](C)(OC)C[C@@H](C)C(=O)[C@H](C)[C@@H](O)[C@]1(C)O` [CLARITHROMYCIN], the Activity in [1] came to 38.7%; in experiment [2], 155.6%; in experiment [3] it was 62.3%; in experiment [4], 51.5%; in experiment [5], 292%; in experiment [6], 32.2%. Also, the Activity is on record as 62.8% in experiment [7]; -3.9% in experiment [8]; 146.4% in [9]; 46.3% in experiment [10]; 50.3% in experiment [11]; 50.6% in experiment [12]. For the same molecule, the Activity in experiment [13] came to 275.8%; in experiment [14], 71.8%; in experiment [15], 201.5%; in experiment [16], 140.2%; in experiment [18], 147.2%; in [19], 54.9%. For the same molecule, the Activity is reported as 78.6% in [20], 54.6% in experiment [21], 112.8% in experiment [22] and 164% in experiment [23]. Besides, the minimum inhibitory concentration (MIC) was above 128 µg/mL in experiment [17] and 16 µg/mL (≈ 21.4 µM) in experiment [24].
